Measurements from patent US20050130935A1, “Combination of a beta-2-adrenoceptor agonists and an aminosugars and their use for the treatment immunomodulatory disorders” (priority 2002, published 2005).

How the values were obtained:
[1] = test system: arachidonic acid induced ear oedema; test: arachidonic acid induced ear inflammation test in the mouse, complex versus its components (Example 178); format: in vivo; settings: i.p.; for inhibition of ear oedema, in words: doses of T17
Protocol: The objective of this study is to assess the effect of a dose of a complex according to compared to the effect of the corresponding doses of the components of the complex. All compounds were systemically administered in the arachidonic acid induced ear inflammation test in the mouse, a commonly employed method for screening and evaluation of antiinflammatory drugs. Methylprednisolone was employed as reference compound.
(§1) The study was performed in female BALB/ca mice from M & B A/S, DK-8680 Ry. At start of the acclimatisation period the mice were in the weight range of 20 g (+/−5 g).
On the day of arrival the animals were randomly allocated to groups of 10 mice.
(§2) The test substances and reference compound were administered intraperitoneally in volumes of 20 ml per kg body weight 30 minutes before application of arachidonic acid to the ear.
All groups were treated with 20 μl arachidonic acid, 100 mg/ml in acetone, on the right ear.
One hour after the arachidonic acid application the mice were sacrificed, the ears cut from the tip with a punch biopsy knife (8 mm diameter) and weighed.
(§3) Mean weights and standard deviations were calculated. Relative ear oedema was assessed as the weight difference between right and left ear of each mouse expressed as percent of the left ear. Percent inhibition of the relative ear oedema compared with the vehicle treated groups was calculated for the test substance and reference compound treated groups.
All visible signs of ill health and any behavioural changes were recorded daily during the study. Any deviation from normal was recorded with respect to time of onset, duration and intensity.
Differences in relative ear oedema between the vehicle treated group and the other groups were tested for significance employing a non-parametric statistical method of analysis, the Mann-Whitney U test. The required level of significance will be p<0.05. […] All statistical analysis was performed employing the statistical software package Analyse-it v. 1.62.

[2] = test system: osteoarthritis of the knees; test: case report, person with osteoarthritis of the knees (Example 180); format: in vivo, human; settings: for success of earlier analgesic treatment of osteoarthritis of the knees: treatment for periods during 8 years
Protocol: They were then treated with the complex of the invention disclosed in example 56 (1500 mg/day). […] The improvement persisted for the entire treatment period of 10 weeks, where after the treatment was terminated.

muscular pain = test: case report, with muscular pain (Example 179); format: in vivo, human
Protocol: They were then treated with the complex of the invention disclosed in example 56 (1500 mg/day) instead of glucosamine sulfate. […] After two weeks they were symptom free for the first time in 6 years, which persisted for another 6 weeks of treatment, where after the treatment was terminated.

[3] = test system: arachidonic acid induced ear oedema; test: arachidonic acid induced ear inflammation test in the mouse (Example 177); format: in vivo; settings: i.p., 30 minutes before arachidonic acid, ears weighed one hour after application
Protocol: The objective of this study is to assess the effect of three doses of two chemical complexes of the invention systemically administered in the arachidonic acid induced ear inflammation test in the mouse, a commonly employed method for screening and evaluation of antiinflammatory drugs. Dexamethasone was employed as reference compound.
as §1
On the day of arrival the animals were randomly allocated to groups of 8 mice.
as §2
All groups were treated with 20 μl arachidonic acid, 100 mg/ml in acetone, on the right ear. […]
as §3
All visible signs of ill health and any behavioural changes were recorded daily during the study. Any deviation from normal was recorded with respect to time of onset, duration and intensity. […]

CC(C)(C)NCC(O)c1ccc(O)c(CO)c1 (stereo not shown) [Salbutamol]
% Inhibition of relative ear oedema ([1]; 3.0 mg/kg): 55% | inhibition of ear oedema, in words [1]: inhibited ear oedema significantly

CS(=O)(=O)c1ccc(C2=C(c3ccccc3)C(=O)OC2)cc1 [rofecoxib]
success of earlier analgesic treatment of osteoarthritis of the knees [2]: limited success

C[C@H]1C[C@@H]2[C@H]([C@@H](O)C[C@@]3(C)[C@H]2CC[C@]3(O)C(=O)CO)[C@@]2(C)C=CC(=O)C=C12 [Methylprednisolone]
% Inhibition of relative ear oedema ([1]; 30 mg/kg): 55%

N[C@H]1C(O)O[C@H](CO)[C@@H](O)[C@@H]1O.O=S(=O)(O)O (stereo partly shown) [Glucosamine sulfate]
% Inhibition of relative ear oedema ([1]; 997 mg/kg): 9% | inhibition of ear oedema, in words [1]: inhibited ear oedema mildly, and not statistically significantly | improvement of muscular pain symptoms on earlier treatment (muscular pain; 1500 mg a day, continuously the last year): small improvement

N[C@H]1C(O)O[C@H](CO)[C@@H](O)[C@@H]1O (stereo partly shown) [glucosamine]
effect of earlier treatment on osteoarthritis of the knees ([2]; recommended dose, different formulations): very limited effect

O=C(O)Cc1ccccc1Nc1c(Cl)cccc1Cl [diclofenac]
success of earlier analgesic treatment of osteoarthritis of the knees [2]: limited success

CC(C)Cc1ccc(C(C)C(=O)O)cc1 (stereo not shown) [ibuprofen]
success of earlier analgesic treatment of muscular pain (muscular pain; treatment for periods during 6 years): limited success

COc1ccc2c3c1O[C@H]1[C@@H](O)C=C[C@H]4[C@@H](C2)N(C)CC[C@@]341 [codeine]
success of earlier analgesic treatment of osteoarthritis of the knees [2]: limited success

C[C@@H]1C[C@H]2[C@@H]3CCC4=CC(=O)C=C[C@]4(C)[C@@]3(F)[C@@H](O)C[C@]2(C)[C@@]1(O)C(=O)CO [Dexamethasone]
% Inhibition of relative ear oedema ([3]; 2 mg/kg): 0% | % Inhibition of relative ear oedema ([3]; 6 mg/kg): 0%
